Data on six compounds can be found in patent publication US20120121591A1 (priority 2009, published 2012).

Each structure is given as a SMILES string. Read-outs that look alike come from different tables or passages of the source.

Common to all, as to assay type: cell-based
Assay [1] has as its target hKv1.3 (Homo sapiens, UniProt P22001). Kind of assay: cell-based. Particulars: Kv1.3 (IWQ) IC50 (nM, Avg).
Assay [2] has as its system IL-2 secretion from T cells in human whole blood. The settings on record: read-out: WB (IL-2) IC50 (nM, Avg).
Assay [3] relates to IFN-g secretion from T cells in human whole blood.
[4] abbreviates: read-out: WB (IFNg) IC50 (nM, Avg).

hKv1.3, sequence (P22001 whole entry): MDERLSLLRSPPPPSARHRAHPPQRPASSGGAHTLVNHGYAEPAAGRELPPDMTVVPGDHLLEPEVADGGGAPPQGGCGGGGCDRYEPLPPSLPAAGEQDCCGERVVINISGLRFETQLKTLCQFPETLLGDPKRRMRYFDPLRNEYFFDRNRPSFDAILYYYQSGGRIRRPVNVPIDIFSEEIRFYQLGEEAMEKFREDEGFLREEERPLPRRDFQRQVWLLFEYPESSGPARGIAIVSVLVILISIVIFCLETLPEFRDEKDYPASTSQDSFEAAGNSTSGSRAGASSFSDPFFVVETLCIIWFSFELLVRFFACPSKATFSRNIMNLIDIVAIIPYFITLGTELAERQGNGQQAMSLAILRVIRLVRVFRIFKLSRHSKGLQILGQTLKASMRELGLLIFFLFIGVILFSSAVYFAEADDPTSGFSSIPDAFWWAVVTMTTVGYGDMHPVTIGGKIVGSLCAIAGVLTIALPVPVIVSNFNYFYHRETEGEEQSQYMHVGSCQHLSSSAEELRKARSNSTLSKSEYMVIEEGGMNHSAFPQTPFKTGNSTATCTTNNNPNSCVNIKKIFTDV

With `CCC[C@@H]1NC(=O)[C@H](CO)NC(=O)[C@H](Cc2c[nH]cn2)NC(=O)[C@H](CCCCN)NC(=O)[C@@H]2CSSC[C@@H]3NC(=O)[C@H]([C@@H](C)O)NC(=O)[C@H](CCCCN)NC(=O)[C@H](CCCNC(=N)N)NC(=O)[C@H](CSSC[C@H](NC(=O)[C@H](CCCNC(=N)N)NC(=O)[C@H](CO)NC(=O)[C@H](CCCCN)NC(=O)[C@@H]4CCCN4C(=O)[C@H]([C@@H](C)CC)NC(=O)[C@H]([C@@H](C)O)NC(=O)[C@H](CC(=O)O)NC(=O)[C@H](CCC(=O)O)NC(=O)[C@@H](NC(=O)[C@H](CO)NC(=O)[C@@H](N)CCCNC(=N)N)CSSC[C@@H](C(=O)N[C@@H](C)C(=O)O)NC(=O)[C@H]([C@@H](C)O)NC(=O)CNC3=O)C(=O)N[C@@H]([C@@H](C)O)C(=O)N[C@@H](C)C(=O)N[C@@H](Cc3ccccc3)C(=O)N[C@@H](CCCCN)C(=O)N2)NC(=O)[C@H](Cc2ccccc2)NC(=O)[C@H](CO)NC(=O)[C@H](CC(C)C)NC(=O)[C@H](CCCNC(=N)N)NC(=O)[C@H](Cc2ccc(O)cc2)NC(=O)[C@H](CCCCN)NC1=O` [[Glu4,Lys16,Nva21]ShK-Ala], the figures for the IC50 in assay [1], in assay [2] and in assay [3] (setting [4]) were 33.3 nM, 0.208 nM and 0.368 nM, respectively.

For `CC[C@H](C)[C@@H]1NC(=O)[C@H]([C@@H](C)O)NC(=O)[C@H](CC(=O)O)NC(=O)[C@H](CCC(=O)O)NC(=O)[C@@H](NC(=O)[C@H](CO)NC(=O)[C@@H](N)CCCNC(=N)N)CSSC[C@@H](C(N)=O)NC(=O)[C@H]([C@@H](C)O)NC(=O)CNC(=O)[C@@H]2CSSC[C@@H]3NC(=O)[C@H](CCCCN)NC(=O)[C@H](Cc4ccccc4)NC(=O)[C@H](C)NC(=O)[C@H]([C@@H](C)O)NC(=O)[C@H](CSSC[C@H](NC(=O)[C@H](Cc4ccccc4)NC(=O)[C@H](CO)NC(=O)[C@H](CC(C)C)NC(=O)[C@H](CCCNC(=N)N)NC(=O)[C@H](Cc4ccc(O)cc4)NC(=O)[C@H](CCCCN)NC(=O)[C@H](CCSC)NC(=O)[C@H](CO)NC(=O)[C@H](Cc4c[nH]cn4)NC(=O)[C@H](CCCCN)NC3=O)C(=O)N[C@@H](CCCNC(=N)N)C(=O)N[C@@H](CCCCN)C(=O)N[C@@H]([C@@H](C)O)C(=O)N2)NC(=O)[C@H](CCCNC(=N)N)NC(=O)[C@H](CO)NC(=O)[C@H](CCCCN)NC(=O)[C@@H]2CCCN2C1=O` [[Glu4,Lys16]ShK-amide], the IC50 is 0.127 nM in assay [1], 0.071 nM in assay [2] and 0.068 nM in assay [3] (setting [4]).

Take `CC[C@H](C)[C@@H]1NC(=O)[C@H]([C@@H](C)O)NC(=O)[C@H](CC(=O)O)NC(=O)[C@H](CCC(=O)O)NC(=O)[C@@H](NC(=O)[C@H](CO)NC(=O)[C@@H](N)CCCNC(=N)N)CSSC[C@@H](C(N)=O)NC(=O)[C@H]([C@@H](C)O)NC(=O)CNC(=O)[C@@H]2CSSC[C@@H]3NC(=O)[C@H](CCCCN)NC(=O)[C@H](Cc4ccccc4)NC(=O)[C@H](C)NC(=O)[C@H]([C@@H](C)O)NC(=O)[C@H](CSSC[C@H](NC(=O)[C@H](Cc4ccccc4)NC(=O)[C@H](Cc4cccc5ccccc45)NC(=O)[C@H](CC(C)C)NC(=O)[C@H](CCCNC(=N)N)NC(=O)[C@H](Cc4ccc(O)cc4)NC(=O)[C@H](CCCCN)NC(=O)[C@H](CCSC)NC(=O)[C@H](CO)NC(=O)[C@H](Cc4c[nH]cn4)NC(=O)[C@H](CCCCN)NC3=O)C(=O)N[C@@H](CCCCN)C(=O)N[C@@H](CCCNC(=N)N)C(=O)N[C@@H]([C@@H](C)O)C(=O)N2)NC(=O)[C@H](CCCNC(=N)N)NC(=O)[C@H](CO)NC(=O)[C@H](CCCCN)NC(=O)[C@@H]2CCCN2C1=O` [[Glu4; Lys16,29;1-Na126;Arg30]ShK-amide]: the IC50 in assay [1] worked out at 0.384 nM; in assay [2] it was 0.712 nM; in assay [3] (setting [4]) it was 0.598 nM.

Turning to `CC[C@H](C)[C@@H]1NC(=O)[C@H]([C@@H](C)O)NC(=O)[C@H](CC(=O)O)NC(=O)[C@H](CCC(=O)O)NC(=O)[C@@H](NC(=O)[C@H](CO)NC(=O)[C@@H](N)CCCNC(=N)N)CSSC[C@@H](C(N)=O)NC(=O)[C@H]([C@@H](C)O)NC(=O)CNC(=O)[C@@H]2CSSC[C@@H]3NC(=O)[C@H](CCCCN)NC(=O)[C@H](Cc4ccccc4)NC(=O)[C@H](C)NC(=O)[C@H]([C@@H](C)O)NC(=O)[C@H](CSSC[C@H](NC(=O)[C@H](Cc4ccccc4)NC(=O)[C@H](CO)NC(=O)[C@H](CC(C)C)NC(=O)[C@H](CCCNC(=N)N)NC(=O)[C@H](Cc4ccc(O)cc4)NC(=O)[C@H](CCCCN)NC(=O)[C@H](CCSC)NC(=O)[C@H](CO)NC(=O)[C@H](Cc4c[nH]cn4)NC(=O)[C@H](CCCCN)NC3=O)C(=O)N[C@@H](CCCCN)C(=O)N[C@@H](CCCNC(=N)N)C(=O)N[C@@H]([C@@H](C)O)C(=O)N2)NC(=O)[C@H](CCCNC(=N)N)NC(=O)[C@H](CO)NC(=O)[C@H](CCCCN)NC(=O)[C@@H]2CCCN2C1=O` [[Glu4; Lys16,29;Arg30]ShK-amide], the IC50 in assay [1] was 0.104 nM; in assay [2] it was 0.067 nM; in assay [3] (setting [4]), 0.28 nM.

`CC[C@H](C)[C@@H]1NC(=O)[C@H]([C@@H](C)O)NC(=O)[C@H](CC(=O)O)NC(=O)[C@H](CCC(=O)O)NC(=O)[C@@H](NC(=O)[C@H](CO)NC(=O)[C@@H](N)CCCNC(=N)N)CSSC[C@@H](C(N)=O)NC(=O)[C@H]([C@@H](C)O)NC(=O)CNC(=O)[C@@H]2CSSC[C@@H]3NC(=O)[C@H](CCCCN)NC(=O)[C@H](Cc4ccccc4)NC(=O)[C@H](C)NC(=O)[C@H]([C@@H](C)O)NC(=O)[C@H](CSSC[C@H](NC(=O)[C@H](Cc4ccccc4)NC(=O)[C@H](CO)NC(=O)[C@H](CC(C)C)NC(=O)[C@H](CCCNC(=N)N)NC(=O)[C@H](Cc4ccc(O)cc4)NC(=O)[C@H](CCCCN)NC(=O)[C@H](CCSC)NC(=O)[C@H](CO)NC(=O)[C@H](Cc4c[nH]cn4)NC(=O)[C@H](CCCNC(=N)N)NC3=O)C(=O)N[C@@H](CCCCN)C(=O)N[C@@H](CCCNC(=N)N)C(=O)N[C@@H]([C@@H](C)O)C(=O)N2)NC(=O)[C@H](CCCNC(=N)N)NC(=O)[C@H](CO)NC(=O)[C@H](CCCCN)NC(=O)[C@@H]2CCCN2C1=O` [[Glu4; Lys16, 29;Arg18, 30]ShK-amide]: the IC50 was 0.192 nM in assay [1], 0.203 nM in assay [2] and 0.353 nM in assay [3] (setting [4]).

On to `CC[C@H](C)[C@@H]1NC(=O)[C@H]([C@@H](C)O)NC(=O)[C@H](CC(=O)O)NC(=O)[C@H](CCC(=O)O)NC(=O)[C@@H](NC(=O)[C@H](CO)NC(=O)[C@@H](N)CCCNC(=N)N)CSSC[C@@H](C(=O)O)NC(=O)[C@H]([C@@H](C)O)NC(=O)CNC(=O)[C@@H]2CSSC[C@@H]3NC(=O)[C@H](CCC(N)=O)NC(=O)[C@H](Cc4ccccc4)NC(=O)[C@H](C)NC(=O)[C@H]([C@@H](C)O)NC(=O)[C@H](CSSC[C@H](NC(=O)[C@H](Cc4ccccc4)NC(=O)[C@H](CO)NC(=O)[C@H](CC(C)C)NC(=O)[C@H](CCCNC(=N)N)NC(=O)[C@H](Cc4ccc(O)cc4)NC(=O)[C@H](CCCCN)NC(=O)[C@H](CCSC)NC(=O)[C@H](CO)NC(=O)[C@H](Cc4c[nH]cn4)NC(=O)[C@H](CCCCN)NC3=O)C(=O)N[C@@H](CCCNC(=N)N)C(=O)N[C@@H](CCCCN)C(=O)N[C@@H]([C@@H](C)O)C(=O)N2)NC(=O)[C@H](CCCNC(=N)N)NC(=O)[C@H](CO)NC(=O)[C@H](CCCCN)NC(=O)[C@@H]2CCCN2C1=O` [[Glu4]ShK], for which the IC50 in assay [1] was found to be 0.07 nM; in assay [2] it was 0.031 nM; in assay [3] (read-out: WB (IFNg) IC5- (nM, Avg)), 0.049 nM.
